According to ChEMBL document CHEMBL3826911, “Rational design and synthesis of novel anti-prostate cancer agents bearing a 3,5-bis-trifluoromethylphenyl moiety” (Bioorg Med Chem Lett, 2016):

Legend:
[1] = Half life in human liver microsomes at 3 uM in presence of NADPH by LC-MS/MS analysis; format: ADME
[2] = biological target: Albumin (Homo sapiens, UniProt P02768); assay: Binding affinity to human serum albumin at 5 uM by equilibrium dialysis based LC-MS/MS analysis; format: ADME; settings: read-out: PB (converted)
Chain of Albumin (P02768 whole entry): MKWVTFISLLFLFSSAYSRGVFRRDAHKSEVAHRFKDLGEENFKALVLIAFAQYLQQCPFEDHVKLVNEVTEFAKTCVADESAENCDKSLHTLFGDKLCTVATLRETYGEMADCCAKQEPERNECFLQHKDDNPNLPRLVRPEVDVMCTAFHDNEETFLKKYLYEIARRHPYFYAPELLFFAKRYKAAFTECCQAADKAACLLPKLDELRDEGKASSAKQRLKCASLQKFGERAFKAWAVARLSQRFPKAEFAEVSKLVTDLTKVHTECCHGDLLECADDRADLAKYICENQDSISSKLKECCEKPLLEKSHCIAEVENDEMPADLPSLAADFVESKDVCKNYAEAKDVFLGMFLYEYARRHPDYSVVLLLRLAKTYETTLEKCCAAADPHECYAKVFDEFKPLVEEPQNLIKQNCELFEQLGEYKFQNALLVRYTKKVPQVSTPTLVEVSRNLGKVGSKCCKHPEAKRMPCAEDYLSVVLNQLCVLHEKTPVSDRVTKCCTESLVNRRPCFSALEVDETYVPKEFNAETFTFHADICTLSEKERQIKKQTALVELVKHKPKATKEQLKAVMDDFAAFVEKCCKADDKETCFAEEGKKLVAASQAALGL

[3] = system: CWR22R; assay: Antiproliferative activity against human 22Rv1 cells assessed as reduction in cell viability after 96 hrs by propidium iodide staining based fluorescence assay; format: functional
[4] = system: HepG2; assay: Cytotoxicity against human HepG2 cells assessed as cell viability after 72 hrs by MTT assay; format: functional, cell-based; settings: for AC50 / minimal effective concentration: HepG2, 72 h; for minimal effective concentration: read-out: MEC
[5] = system: LNCaP; assay: Antiproliferative activity against human LNCAP cells assessed as reduction in cell viability after 96 hrs by propidium iodide staining based fluorescence assay; format: functional
[6] = biological target: hERG (KCNH2) (Homo sapiens, UniProt Q12809); assay: Inhibition of human ERG transfected in CHO cells assessed as blockade of tail current at 25 uM by patch clamp assay; format: cell-based; settings: CHO cells transfected with human ERG
Chain of hERG (KCNH2) (Q12809 whole entry): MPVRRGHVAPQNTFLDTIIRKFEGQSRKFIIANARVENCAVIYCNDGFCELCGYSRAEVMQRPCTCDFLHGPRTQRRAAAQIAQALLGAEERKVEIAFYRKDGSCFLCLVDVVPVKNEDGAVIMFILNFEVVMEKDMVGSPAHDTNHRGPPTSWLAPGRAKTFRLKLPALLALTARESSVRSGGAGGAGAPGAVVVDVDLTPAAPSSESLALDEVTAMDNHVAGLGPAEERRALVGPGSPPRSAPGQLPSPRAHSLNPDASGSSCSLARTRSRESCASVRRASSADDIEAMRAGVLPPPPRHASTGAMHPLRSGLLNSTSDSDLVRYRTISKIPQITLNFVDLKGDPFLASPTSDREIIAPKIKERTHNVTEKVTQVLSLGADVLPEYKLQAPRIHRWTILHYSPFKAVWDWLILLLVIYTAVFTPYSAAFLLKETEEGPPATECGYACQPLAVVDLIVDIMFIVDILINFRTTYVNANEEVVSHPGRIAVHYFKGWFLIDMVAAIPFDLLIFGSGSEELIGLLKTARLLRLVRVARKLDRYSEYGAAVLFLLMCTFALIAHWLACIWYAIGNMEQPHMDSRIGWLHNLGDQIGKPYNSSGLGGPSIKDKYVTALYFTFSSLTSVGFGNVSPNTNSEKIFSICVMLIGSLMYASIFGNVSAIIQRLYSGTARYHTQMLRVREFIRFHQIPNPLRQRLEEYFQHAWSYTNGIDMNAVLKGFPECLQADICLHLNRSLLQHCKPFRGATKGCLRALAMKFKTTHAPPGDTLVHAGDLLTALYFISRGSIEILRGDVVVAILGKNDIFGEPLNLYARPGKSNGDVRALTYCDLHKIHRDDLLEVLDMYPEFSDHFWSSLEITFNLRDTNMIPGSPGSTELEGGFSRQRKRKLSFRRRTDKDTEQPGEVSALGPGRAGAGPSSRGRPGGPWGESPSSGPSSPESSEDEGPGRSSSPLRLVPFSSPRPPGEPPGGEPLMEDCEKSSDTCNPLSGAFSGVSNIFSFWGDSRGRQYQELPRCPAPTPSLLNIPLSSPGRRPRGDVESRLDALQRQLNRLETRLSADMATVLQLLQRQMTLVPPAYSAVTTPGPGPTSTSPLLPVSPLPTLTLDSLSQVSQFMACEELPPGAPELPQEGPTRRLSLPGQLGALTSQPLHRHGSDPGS

[7] = Antiproliferative activity against human VCaP cells assessed as reduction in cell viability after 96 hrs by propidium iodide staining based fluorescence assay; format: functional
[8] = Antiproliferative activity against human DU145 cells assessed as reduction in cell viability after 96 hrs by propidium iodide staining based fluorescence assay; format: functional, DU-145
[9] = Homo sapiens, 22Rv1, 96 h, read-out: IC50
[10] = Homo sapiens, LNCaP, 96 h, read-out: IC50
[11] = Homo sapiens, VCaP, 96 h, read-out: IC50
[12] = Homo sapiens, DU-145, 96 h, read-out: IC50

| SMILES | half-life at 3 µM [1] | fraction unbound at 5 µM [2] | IC50 [3, 9] | Activity [4] | IC50 [5, 10] | inhibition at 25 µM [6] | IC50 [7, 11] | IC50 [8, 12] | IC50 ([3]; cwr22r) | IC50 ([5]; lncap) | IC50 ([7]; vcap) | IC50 ([8]; du-145) | AC50 [4] | minimal effective concentration [4] |
| --- | --- | --- | --- | --- | --- | --- | --- | --- | --- | --- | --- | --- | --- | --- |
| CC(O)(COc1cc(C(F)(F)F)cc(C(F)(F)F)c1)C(=O)Nc1ccc(C#N)c(C(F)(F)F)c1 (stereo not given) | 32.2 h | 0.053 | 2.64 µM | Dose-dependent effect | 3.01 µM | 7.64% | 2.47 µM | 4.7 µM |  |  |  |  |  |  |
| CC1(C)C(=O)N(c2ccc(C#N)cc2C(F)(F)F)C(=S)N1c1cc(C(F)(F)F)cc(C(F)(F)F)c1 |  |  |  | Dose-dependent effect |  |  |  |  | ND(Insoluble) | ND(Insoluble) | ND(Insoluble) | ND(Insoluble) |  |  |
| CNC(=O)c1ccc(N2C(=S)N(c3cc(C(F)(F)F)cc(C(F)(F)F)c3)C(=O)C2(C)C)cc1 |  |  | 26.4 µM | Dose-dependent effect | 11.3 µM |  | 19.8 µM | 47.9 µM |  |  |  |  |  |  |
| CC(O)(COc1cc(C(C)(C)C)cc(C(C)(C)C)c1)C(=O)Nc1ccc(C#N)c(C(F)(F)F)c1 (stereo not given) |  |  | 2.27 µM | Dose-dependent effect | 2.67 µM |  | 2.98 µM | 3.15 µM |  |  |  |  |  |  |
| CC(O)(CS(=O)(=O)c1ccc(F)cc1)C(=O)Nc1ccc(C#N)c(C(F)(F)F)c1 (stereo not given) |  |  |  | Dose-dependent effect |  |  |  |  |  |  |  |  |  |  |
| CC1(C)C(=O)N(c2ccc([N+](=O)[O-])c(C(F)(F)F)c2)C(=S)N1c1cc(C(F)(F)F)cc(C(F)(F)F)c1 |  |  | 20.2 µM | Dose-dependent effect | 9.93 µM |  | 28.4 µM | 18.1 µM |  |  |  |  |  |  |
| CC(O)(COc1cc(C(F)(F)F)cc(C(F)(F)F)c1)C(=O)Nc1ccc(C(F)(F)F)cc1 (stereo not given) |  |  | 8.49 µM | Dose-dependent effect | 3.35 µM |  | 4.15 µM | 9.23 µM |  |  |  |  |  |  |
| CC(O)(CS(=O)(=O)c1cc(C(F)(F)F)cc(C(F)(F)F)c1)C(=O)Nc1ccc([N+](=O)[O-])cc1C(F)(F)F (stereo not given) |  |  | 2.41 µM | Dose-dependent effect | 3.09 µM |  | 7.11 µM | 3.05 µM |  |  |  |  |  |  |
| CC(O)(CSc1cccc(OC(F)(F)F)c1)C(=O)Nc1cc(C(F)(F)F)cc(C(F)(F)F)c1 (stereo not given) |  |  | 6.42 µM | Dose-dependent effect | 7.76 µM |  | 9.29 µM | 9.61 µM |  |  |  |  |  |  |
| CC1(C)C(=O)N(c2ccc(C#N)c(C(F)(F)F)c2)C(=S)N1c1cc(C(F)(F)F)cc(C(F)(F)F)c1 |  |  |  | Dose-dependent effect |  |  |  |  | ND(Insoluble) | ND(Insoluble) | ND(Insoluble) | ND(Insoluble) |  |  |
| CN(C)CCCN1c2ccccc2Sc2ccc(Cl)cc21 [CHLORPROMAZINE] |  |  |  |  |  |  |  |  |  |  |  |  | 7.62 µM | 2.07 µM |
| CC(O)(CSc1ccccc1OC(F)(F)F)C(=O)Nc1cc(C(F)(F)F)cc(C(F)(F)F)c1 (stereo not given) |  |  | 2.94 µM | Dose-dependent effect | 2.91 µM |  | 2.9 µM | 6.41 µM |  |  |  |  |  |  |
| CNC(=O)c1ccc(N2C(=S)N(c3ccc(C#N)c(C(F)(F)F)c3)C(=O)C2(C)C)cc1F [ENZALUTAMIDE] |  |  |  | Dose-dependent effect | 11.5 µM |  | 53 µM | 32.3 µM |  |  |  |  |  |  |
| CC(O)(CS(=O)(=O)c1cc(C(F)(F)F)cc(C(F)(F)F)c1)C(=O)Nc1ccc(C#N)cc1C(F)(F)F (stereo not given) |  |  |  | Dose-dependent effect |  |  |  |  | ND(Insoluble) | ND(Insoluble) | ND(Insoluble) | ND(Insoluble) |  |  |
| CC(O)(COc1cc(C(F)(F)F)cc(C(F)(F)F)c1)C(=O)Nc1ccc([N+](=O)[O-])cc1C(F)(F)F (stereo not given) |  |  | 16.1 µM | Dose-dependent effect | 24 µM |  | 23.7 µM | 11.6 µM |  |  |  |  |  |  |
| CC(O)(CSc1ccccc1C(F)(F)F)C(=O)Nc1cc(C(F)(F)F)cc(C(F)(F)F)c1 (stereo not given) |  |  | 4.37 µM | Dose-dependent effect | 3.57 µM |  | 3.84 µM | 8.66 µM |  |  |  |  |  |  |

| SMILES | half-life at 3 µM [1] | fraction unbound at 5 µM [2] | IC50 [3, 9] | Activity [4] | IC50 [5, 10] | inhibition at 25 µM [6] | IC50 [7, 11] | IC50 [8, 12] | IC50 ([3]; cwr22r) | IC50 ([5]; lncap) | IC50 ([7]; vcap) | IC50 ([8]; du-145) | AC50 [4] | minimal effective concentration [4] |
| --- | --- | --- | --- | --- | --- | --- | --- | --- | --- | --- | --- | --- | --- | --- |
| CC(O)(CS(=O)(=O)c1ccccc1C(F)(F)F)C(=O)Nc1cc(C(F)(F)F)cc(C(F)(F)F)c1 (stereo not given) |  |  | 9.45 µM | Dose-dependent effect | 8.51 µM |  | 8.55 µM | 11 µM |  |  |  |  |  |  |
| CC(O)(CSc1cc(C(F)(F)F)cc(C(F)(F)F)c1)C(=O)Nc1ccc([N+](=O)[O-])cc1C(F)(F)F (stereo not given) |  |  | 2.29 µM | Dose-dependent effect | 3.11 µM |  | 3.52 µM | 3.38 µM |  |  |  |  |  |  |
| CC(O)(CS(=O)(=O)c1cccc(OC(F)(F)F)c1)C(=O)Nc1cc(C(F)(F)F)cc(C(F)(F)F)c1 (stereo not given) |  |  | 12.8 µM | Dose-dependent effect | 9.34 µM |  | 9.99 µM | 14.1 µM |  |  |  |  |  |  |
| CC(O)(CS(=O)(=O)c1ccccc1OC(F)(F)F)C(=O)Nc1cc(C(F)(F)F)cc(C(F)(F)F)c1 (stereo not given) | 4.83 h | 0.217 | 8.99 µM | Dose-dependent effect | 8.02 µM | 13.4% | 9.95 µM | 12.9 µM |  |  |  |  |  |  |
| CC1(C)C(=O)N(c2ccc([N+](=O)[O-])cc2C(F)(F)F)C(=S)N1c1cc(C(F)(F)F)cc(C(F)(F)F)c1 | 1.19 h | 0.001 | 6.97 µM | Dose-dependent effect | 4.67 µM | 9.44% | 18.6 µM | 10 µM |  |  |  |  |  |  |
| C[C@](O)(CSc1cc(C(F)(F)F)cc(C(F)(F)F)c1)C(=O)Nc1ccc(C#N)c(C(F)(F)F)c1 | 0.108 h |  | 1.13 µM |  | 0.79 µM |  | 0.84 µM | 2.66 µM |  |  |  |  | 2.35 µM | 1.22 µM |
| CC(O)(CSc1cc(C(F)(F)F)cc(C(F)(F)F)c1)C(=O)Nc1ccc(C#N)cc1C(F)(F)F (stereo not given) |  |  | 4.65 µM | Dose-dependent effect | 7.76 µM |  | 6.65 µM | 9.09 µM |  |  |  |  |  |  |
| CC(O)(CSc1cc(C(F)(F)F)cc(C(F)(F)F)c1)C(=O)Nc1ccc(C(F)(F)F)cc1 (stereo not given) |  |  | 9.75 µM | Dose-dependent effect | 9.61 µM |  | 9.88 µM | 16.4 µM |  |  |  |  |  |  |
| N#CC(C#N)=NNc1cccc(Cl)c1 [CARBONYL CYANIDE M-CHLOROPHENYLHYDRAZONE] |  |  |  |  |  |  |  |  |  |  |  |  | 8.28 µM | 3.25 µM |
| CC(O)(COc1cc(C(F)(F)F)cc(C(F)(F)F)c1)C(=O)Nc1ccc(C#N)cc1C(F)(F)F (stereo not given) |  |  | 4.07 µM | Dose-dependent effect | 3.56 µM |  | 4.77 µM | 8.05 µM |  |  |  |  |  |  |
| CC(O)(CS(=O)(=O)c1cccc(C(F)(F)F)c1)C(=O)Nc1cc(C(F)(F)F)cc(C(F)(F)F)c1 (stereo not given) |  |  | 10.3 µM | Dose-dependent effect | 9.5 µM |  | 9.98 µM | 11.5 µM |  |  |  |  |  |  |
| CC(O)(COc1cc(C(F)(F)F)cc(C(F)(F)F)c1)C(=O)Nc1ccc([N+](=O)[O-])c(C(F)(F)F)c1 (stereo not given) |  |  | 1.09 µM | Dose-dependent effect | 0.99 µM |  | 1.66 µM | 2.9 µM |  |  |  |  |  |  |
| CC(O)(CSc1cc(C(F)(F)F)cc(C(F)(F)F)c1)C(=O)Nc1ccc(C#N)c(C(F)(F)F)c1 (stereo not given) |  |  | 1.9 µM | Dose-dependent effect | 2.34 µM |  | 2.73 µM | 2.85 µM |  |  |  |  |  |  |
| CC(O)(CS(=O)(=O)c1cc(C(F)(F)F)cc(C(F)(F)F)c1)C(=O)Nc1ccc(C#N)c(C(F)(F)F)c1 (stereo not given) |  |  | 3.11 µM | Dose-dependent effect | 2.86 µM |  | 6.21 µM | 5.58 µM |  |  |  |  |  |  |
| CC(O)(CSc1cccc(C(F)(F)F)c1)C(=O)Nc1cc(C(F)(F)F)cc(C(F)(F)F)c1 (stereo not given) |  |  | 9.67 µM | Dose-dependent effect | 8.75 µM |  | 9.86 µM | 10 µM |  |  |  |  |  |  |
